Data as given in patent US20090209528A1, “SUBSTITUTED TETRAHYDROISOQUINOLINE COMPOUND, THEIR PREPARATION AND USE IN MEDICAMENTS” (LABORATORIOS DEL DR. ESTEVE S.A., priority 2006, published 2009).
Structures can show the parent of a compound that is named as a salt.

Biological target: T1, 5HT6-human recombinant receptor (Homo sapiens, UniProt P50406)
T1 construct: purchased Receptor Biology; host or cells: HEK-293 cell membranes
Test: Binding to serotonin receptor 5-HT6 ([3H]-LSD displacement)
Details: radioligand [3H]-LSD 2.7 nM; for inhibition at 0.01 µM / inhibition at 0.1 µM: 1 h; for inhibition at 0.01 µM: compound at 10 nM; for inhibition at 0.1 µM: compound at 100 nM; for Ki: membranes of HEK-293 cells expressing the receptor, 60 min, 37° C.
Protocol: Cell membranes of HEK-293 cells expressing the 5HT6-human recombinant receptor were supplied by Receptor Biology. In said membranes the receptor concentration is 2.18 pmol/mg protein and the protein concentration is 9.17 mg/ml. The experimental protocol follows the method of B. L. Roth et al. [B. L. Roth, S. C. Craigo, M. S. Choudhary, A. Uluer, F. J. Monsma, Y. Shen, H. Y. Meltzer, D. R. Sibley: Binding of Typical and Atypical Antipsychotic Agents to 5-Hydroxytryptamine-6 and Hydroxytryptamine-7 Receptors. The Journal of Pharmacology and Experimental Therapeutics, 1994, 268, 1403] with the following slight changes. The respective part of the literature description is hereby incorporated by reference and forms part of the disclosure.
The commercial membrane is diluted (1:40 dilution) with the binding buffer: 50 mM Tris-HCl, 10 mM MgCl2, 0.5 mM EDTA (pH 7.4). The radioligand used is [^3H]-LSD at a concentration of 2.7 nM with a final volume of 200 μl. Incubation is initiated by adding 100 μl of membrane suspension, (≈22.9 μg membrane protein), and is prolonged for 60 minutes at a temperature of 37° C. The incubation is ended by fast filtration in a Brandel Cell Harvester through fiber glass filters made by Schleicher & Schuell GF 3362 pretreated with a solution of polyethylenimine at 0.5%. The filters are washed three times with three milliliters of buffer Tris-HCl 50 mM pH 7.4. The filters are transferred to flasks and 5 ml of Ecoscint H liquid scintillation cocktail are added to each flask. The flasks are allowed to reach equilibrium for several hours before counting with a Wallac Winspectral 1414 scintillation counter. Non-specific binding is determined in the presence of 100 μM of serotonin. Tests were made in triplicate. The inhibition constants (Ki, nM) were calculated by non-linear regression analysis using the program EBDA/LIGAND described in Munson and Rodbard, Analytical Biochemistry, 1980, 107, 220, the respective part of which is hereby incorporated by reference and forms part of the disclosure.

T1 sequence (P50406 whole entry): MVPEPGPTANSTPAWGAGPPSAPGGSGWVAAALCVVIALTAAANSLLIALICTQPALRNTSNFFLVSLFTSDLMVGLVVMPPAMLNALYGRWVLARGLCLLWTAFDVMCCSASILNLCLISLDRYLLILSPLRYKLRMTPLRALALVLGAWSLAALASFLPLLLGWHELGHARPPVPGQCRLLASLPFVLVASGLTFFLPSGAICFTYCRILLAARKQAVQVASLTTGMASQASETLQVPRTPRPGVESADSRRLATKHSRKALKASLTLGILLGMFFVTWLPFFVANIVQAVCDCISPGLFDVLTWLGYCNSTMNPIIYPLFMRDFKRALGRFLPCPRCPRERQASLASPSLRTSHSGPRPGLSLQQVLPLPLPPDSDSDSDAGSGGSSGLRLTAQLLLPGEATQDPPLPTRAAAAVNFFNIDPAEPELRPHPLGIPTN

inhibition at 0.01 µM [%] | inhibition at 0.1 µM [%] | Ki [nM] | Structure (SMILES)
53.6 | 86.8 | 12.6 ± 1.1 | O=S(=O)(Nc1ccc2c(c1)CCNC2)c1cc2ccccc2s1 [Example 24, Benzo[b]thiophene-2-sulfonic acid (1,2,3,4-tetrahydro-isoquinolin-6-yl)-amide hydrochloride]
-5 | 8.2 |  | Cc1ccc(S(=O)(=O)Nc2ccc3c(c2)CCN(C(=O)OC(C)(C)C)C3)c2ccccc12 [Example 15, 6-(4-Methyl-naphthalene-1-sulfonylamino)-3,4-dihydro-1H-isoquinoline-2-carboxylic acid tert-butyl ester]
78.9 | 88.4 | 6.1 ± 0.7 | CCc1ccc(OC)c(S(=O)(=O)Nc2ccc3c(c2)CNCC3)c1 [Example 86, 5-Ethyl-2-methoxy-N-(1,2,3,4-tetrahydro-isoquinolin-7-yl)-benzenesulfonamide hydrochloride]
70.3 | 84.1 | 9.4 ± 3.7 | O=S(=O)(Nc1ccc2c(c1)CNCC2)c1ccc(Cl)c2ccccc12 [Example 81, 4-Chloro-naphthalene-1-sulfonic acid (1,2,3,4-tetrahydro-isoquinolin-7-yl)-amide hydrochloride]
77.5 | 85.8 | 2.1 | O=S(=O)(Nc1ccc2c(c1)CNCC2)c1csc2ccccc12 [Example 78, Benzo[b]thiophene-3-sulfonic acid (1,2,3,4-tetrahydro-isoquinolin-7-yl)-amide hydrochloride]
30.7 | 28.8 | 1.3 | CC(C)(C)OC(=O)N1CCc2cc(NS(=O)(=O)c3cccc4ccccc34)ccc2C1 [Example 13, 6-(Naphthalene-1-sulfonylamino)-3,4-dihydro-1H-isoquinoline-2-carboxylic acid tert-butyl ester]
78.2 | 88.9 | 9.3 ± 2.2 | O=S(=O)(Nc1ccc2c(c1)CCNC2)c1cccc2c(Cl)cccc12 [Example 42, 5-Chloro-naphthalene-1-sulfonic acid (1,2,3,4-tetrahydro-isoquinolin-6-yl)-amide hydrochloride]
88 | 89.6 | 5.3 ± 0.4 | O=S(=O)(Nc1ccc2c(c1)CCNC2)c1csc2ccccc12 [Example 29, Benzo[b]thiophene-3-sulfonic acid (1,2,3,4-tetrahydro-isoquinolin-6-yl)-amide hydrochloride]
82.3 | 84.9 | 3.8 ± 1.2 | Cc1ccc(S(=O)(=O)Nc2ccc3c(c2)CNCC3)c2ccccc12 [Example 55, 4-Methyl-naphthalene-1-sulfonic acid (1,2,3,4-tetrahydro-isoquinolin-7-yl)-amide hydrochloride]
25.9 | 76.3 | 79.8 | Cc1c(S(=O)(=O)Nc2ccc3c(c2)CCN(C)C3)sc2ccc(Cl)cc12 [Example 5, 5-Chloro-3-methyl-benzo[b]thiophene-2-sulfonic acid (2-methyl-1,2,3,4-tetrahydro-isoquinolin-6-yl)-amide hydrochloride]
-7.3 | -3 |  | Cc1c(S(=O)(=O)Nc2ccc3c(c2)CCN(C(=O)OC(C)(C)C)C3)sc2ccc(Cl)cc12 [Example 14, 6-(5-Chloro-3-methyl-benzo[b]thiophene-2-sulfonylamino)-3,4-dihydro-1H-isoquinoline-2-carboxylic acid tert-butyl ester]
53.3 | 74.8 | 13.8 | O=S(=O)(Nc1ccc2c(c1)CCNC2)c1cccc2ccccc12 [Example 1, Naphthalene-1-sulfonic acid (1,2,3,4-tetrahydroisoquinolin-6-yl)-amide hydrochloride]
17 | 19.6 |  | CN(c1ccc2c(c1)CC[N+](C)(C)C2)S(=O)(=O)c1cccc2ccccc12 [Example 2, 2,2-Dimethyl-6-[methyl-(naphthalene-1-sulfonyl)-amino]-1,2,3,4-tetrahydro isoquinolinium iodide]
41.9 | 66.9 | 55.8 ± 24.1 | Cc1c(S(=O)(=O)Nc2ccc3c(c2)CNCC3)sc2ccc(F)cc12 [Example 64, 5-Fluoro-3-methyl-benzo[b]thiophene-2-sulfonic acid (1,2,3,4-tetrahydro-isoquinolin-7-yl)-amide hydrochloride]
63.2 | 85.2 | 7.8 ± 0.1 | O=S(=O)(Nc1ccc2c(c1)CCNC2)c1ccc(F)c2ccccc12 [Example 30, 4-Fluoro-naphthalene-1-sulfonic acid (1,2,3,4-tetrahydro-isoquinolin-6-yl)-amide hydrochloride]
-1.3 | -2 |  | COc1ccc(C)cc1S(=O)(=O)Nc1ccc2c(c1)CCN(C(=O)OC(C)(C)C)C2 [Example 17, 6-(2-Methoxy-5-methyl-benzenesulfonylamino)-3,4-dihydro-1H-isoquinoline-2-carboxylic acid tert-butyl ester]
78.6 | 85.5 | 3.2 ± 0.4 | O=S(=O)(Nc1ccc2c(c1)CNCC2)c1cccc2ccccc12 [Example 61, Naphthalene-1-sulfonic acid (1,2,3,4-tetrahydro-isoquinolin-7-yl)-amide hydrochloride]
70 | 83.6 | 6.5 ± 0.5 | O=S(=O)(Nc1ccc2c(c1)CNCC2)c1ccc(F)c2ccccc12 [Example 80, 4-Fluoro-naphthalene-1-sulfonic acid (1,2,3,4-tetrahydro-isoquinolin-7-yl)-amide hydrochloride]
60.1 | 86.5 | 9.2 ± 1.2 | CN1CCc2cc(NS(=O)(=O)c3ccc4ccccc4c3)ccc2C1 [Example 9, Naphthalene-2-sulfonic acid (2-methyl-1,2,3,4-tetrahydro-isoquinolin-6-yl)-amide hydrochloride]
86.8 | 92.8 | 10.3 | Cc1ccc(S(=O)(=O)Nc2ccc3c(c2)CN(C)CC3)c2ccccc12 [Example 56, 4-Methyl-naphthalene-1-sulfonic acid (2-methyl-1,2,3,4-tetrahydro-isoqui-nolin-7-yl)-amide hydrochloride]
73.1 | 83.2 | 19.2 ± 2.4 | Cc1ccc2nsnc2c1S(=O)(=O)Nc1ccc2c(c1)CNCC2 [Example 76, 5-Methylbenzo[1,2,5] thiadiazole-4-sulfonic acid (1,2,3,4-tetrahydro-isoquinolin-7-yl)-amide hydrochloride]
48.8 | 81.6 | 14.2 ± 1.5 | CCc1ccc(OC)c(S(=O)(=O)Nc2ccc3c(c2)CCNC3)c1 [Example 35, 5-Ethyl-2-methoxy-N-(1,2,3,4-tetrahydro-isoquinolin-6-yl)-benzene sulfonamide hydrochloride]
55.4 | 82.8 | 3.8 ± 1 | CN1CCc2ccc(NS(=O)(=O)c3c(Cl)nc4sccn34)cc2C1 [Example 53, 6-Chloro-imidazo[2,1-b]thiazole-5-sulfonic acid (2-methyl-1,2,3,4-tetrahydro-isoquinolin-7-yl)-amide hydrochloride]
44.8 | 65.1 | 49.4 ± 8.2 | Cc1c(S(=O)(=O)Nc2ccc3c(c2)CNCC3)sc2ccc(Cl)cc12 [Example 60, 5-Chloro-3-methyl-benzo[b]thiophene-2-sulfonic acid (1,2,3,4-tetrahydro-isoquinolin-7-yl)-amide hydrochloride]
85.8 | 94.6 | 1.3 ± 0.12 | O=S(=O)(Nc1ccc2c(c1)CCNC2)c1c(Cl)nc2sccn12 [Example 10, 6-Chloro-imidazo[2,1-b] thiazole-5-sulfonic acid (1,2,3,4,- tetrahydro-isoquinolin-6-yl)-amide hydrochloride]
37.4 | 74.6 |  | O=S(=O)(Nc1ccc2c(c1)CCNC2)c1ccc2ccccc2c1 [Example 8, Naphthalene-2-sulfonic acid (1,2,3,4-tetrahydro-isoquinolin-6-yl)-amide hydrochloride]
79.7 | 90.8 | 12.3 ± 6 | O=S(=O)(Nc1ccc2c(c1)CCNC2)c1ccccc1-c1ccccc1 [Example 22, Biphenyl-2-sulfonic acid (1,2,3,4-tetrahydro-isoquinolin-6-yl)-amide hydrochloride]
